In patent US12264134B2 (Merck Sharp & Dohme LLC, priority 2018, dated 2025):

Biological target: IDO1 (Homo sapiens, UniProt P14902)
Test: IDO1 Cellular Assay in HeLa Cells Stimulated with IFNγ
Format: cell-based
Conditions: read-out: HeLa Cell Potency, IC50
Method: IDO1 Cellular Assay in HeLa Cells Stimulated with IFNγ
HeLa cells were cultured in complete HeLa culture medium (90% EMEM, 10% heat-inactivated fetal bovine serum) and expanded to about 1×10^9 cells. The cells were then collected and frozen down at 1×10^7 cells/vial in 1 mL frozen medium (90% complete HeLa culture medium, 10% DMSO).
Compounds to be tested were serially diluted in ten 3-fold steps in DMSO starting from 10 mM DMSO stocks in Echo low volume plate(s). Compound dilutions or DMSO alone were then dispensed from the dilution plate(s) into Greiner black 384-well assay plate(s) (catalog #781086, 50 nL/well) using an Echo 550 acoustic liquid handler (Labcyte).
Frozen HeLa cells were thawed and transferred into HeLa assay medium (99% complete HeLa culture medium, 1% Pen/Strep) with 20 mL medium/vial of cells. The cells were spun down at 250 g in a table top centrifuge for 5 min and suspended in same volume of HeLa assay medium. The cells were then counted and adjusted to a density of 2×10^5 cells/mL in HeLa assay medium. Sterile L-tryptophan were added to the cells with final concentration of 300 uM L-tryptophan. A small aliquot (2 mL/plate) of HeLa cells were set aside and were not treated with IFNγ, to serve as the Max-E control.
HeLa cells with and without IFNγ were dispensed to the respective wells of 384-well assay plates containing the compounds. The plates were incubated for about 48 hours at a 37° C., 5% CO2 incubator. Afterwards, 12 μL of 0.5 M methyl isonipecotate in dimethyl sulfoxide were added into each well and the plates were sealed and incubated at 37° C. without CO2 overnight. The plates were centrifuged for 1 min at 200×g. The resulting fluorescence was measured in a Spectramax plate reader (Molecular Devices) with a 400 nm excitation filter and a 510 nm emission filter.
The fluorescence intensity of each well was corrected for the background observed in wells with non-IFNγ-treated cells and was expressed as a fraction of the intensity observed in wells of IFNγ-treated cells and DMSO only. Potencies were calculated by linear least squares fit to the four parameter logistic IC50 equation.

IDO1, sequence (P14902 whole entry): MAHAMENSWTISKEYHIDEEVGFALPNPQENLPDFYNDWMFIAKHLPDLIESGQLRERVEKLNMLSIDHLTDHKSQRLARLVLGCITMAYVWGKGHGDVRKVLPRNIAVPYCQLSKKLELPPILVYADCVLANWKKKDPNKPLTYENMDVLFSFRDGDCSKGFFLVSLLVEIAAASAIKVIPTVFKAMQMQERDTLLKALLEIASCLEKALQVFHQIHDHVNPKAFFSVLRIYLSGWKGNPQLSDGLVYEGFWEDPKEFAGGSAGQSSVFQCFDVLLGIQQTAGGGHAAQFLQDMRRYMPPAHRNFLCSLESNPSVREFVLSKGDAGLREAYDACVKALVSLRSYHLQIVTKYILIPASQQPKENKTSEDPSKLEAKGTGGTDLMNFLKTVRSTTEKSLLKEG

Compound | IC50 [nM]
C[C@@H]1CN(C(=O)c2nn(CC(=O)N3CCN(c4ccc5c(c4)CCO5)CC3)c3c2CCC3)C[C@H](C)O1 [Example 31, 1-[4-(2,3-dihydro-1-benzofuran-5-yl)piperazin-1-yl]-2-{3-[(2R,6S)-2,6-dimethylmorpholine-4-carbonyl]-5,6-dihydrocyclopenta[c]pyrazol-1(4H)-yl}ethan-1-one] | 178
C[C@@H]1CN(C(=O)c2nn(CC(=O)N3CCN(c4cccc(F)c4Cl)CC3)c3c2CCC3)C[C@H](C)O1 [Example 32, 1-[4-(2-chloro-3-fluorophenyl)piperazin-1-yl]-2-{3-[(2R,6S)-2,6-dimethylmorpholine-4-carbonyl]-5,6-dihydrocyclopenta[c]pyrazol-1(4H)-yl}ethan-1-one] | 117
Cc1c(C#N)cccc1N1CCN(C(=O)Cn2nc(C(=O)N3C[C@@H](C)O[C@@H](C)C3)c3c2CCC3)CC1 [Example 33, 3-[4-({3-[(2R,6S)-2,6-dimethylmorpholine-4-carbonyl]-5,6-dihydrocyclopenta[c]pyrazol-1(4H)-yl}acetyl)piperazin-1-yl]-2-methylbenzonitrile] | 65
Cc1ccc(N2CCN(C(=O)Cn3nc(C(=O)N4C[C@@H](C)O[C@@H](C)C4)c4c3CCC4)CC2)cc1 [Example 34, 2-{3-[(2R,6S)-2,6-dimethylmorpholine-4-carbonyl]-5,6-dihydrocyclopenta[c]pyrazol-1(4H)-yl}-1-[4-(4-methylphenyl)piperazin-1-yl]ethan-1-one] | 142
C[C@@H]1CN(C(=O)c2nn(CC(=O)N3CCN(c4cccc(F)c4F)CC3)c3c2CCC3)C[C@H](C)O1 [Example 35, 1-[4-(2,3-difluorophenyl)piperazin-1-yl]-2-{3-[(2R,6S)-2,6-dimethylmorpholine-4-carbonyl]-5,6-dihydrocyclopenta[c]pyrazol-1(4H)-yl}ethan-1-one] | 487
COc1cc(F)cc(N2CCN(C(=O)Cn3nc(C(=O)N4C[C@@H](C)O[C@@H](C)C4)c4c3CCC4)CC2)c1 [Example 36, 2-{3-[(2R,6S)-2,6-dimethylmorpholine-4-carbonyl]-5,6-dihydrocyclopenta[c]pyrazol-1(4H)-yl}-1-[4-(3-fluoro-5-methoxyphenyl)piperazin-1-yl]ethan-1-one] | 55.5
COc1cc(N2CCN(C(=O)Cn3nc(C(=O)N4C[C@@H](C)O[C@@H](C)C4)c4c3CCC4)CC2)ccc1C [Example 37, 2-{3-[(2R,6S)-2,6-dimethylmorpholine-4-carbonyl]-5,6-dihydrocyclopenta[c]pyrazol-1(4H)-yl}-1-[4-(3-methoxy-4-methylphenyl)piperazin-1-yl]ethan-1-one] | 234
COc1ccc(N2CCN(C(=O)Cn3nc(C(=O)N4C[C@@H](C)O[C@@H](C)C4)c4c3CCC4)CC2)c(C)c1 [Example 38, 2-{3-[(2R,6S)-2,6-dimethylmorpholine-4-carbonyl]-5,6-dihydrocyclopenta[c]pyrazol-1(4H)-yl}-1-[4-(4-methoxy-2-methylphenyl)piperazin-1-yl]ethan-1-one] | 124
COc1cccc(N2CCN(C(=O)Cn3nc(C(=O)N4C[C@@H](C)O[C@@H](C)C4)c4c3CCC4)CC2)c1F [Example 39, 2-{3-[(2R,6S)-2,6-dimethylmorpholine-4-carbonyl]-5,6-dihydrocyclopenta[c]pyrazol-1(4H)-yl}-1-[4-(2-fluoro-3-methoxyphenyl)piperazin-1-yl]ethan-1-one] | 374
Cc1cc(N2CCN(C(=O)Cn3nc(C(=O)N4C[C@@H](C)O[C@@H](C)C4)c4c3CCC4)CC2)cc(C)c1Cl [Example 40, 1-[4-(4-chloro-3,5-dimethylphenyl)piperazin-1-yl]-2-{3-[(2R,6S)-2,6-dimethylmorpholine-4-carbonyl]-5,6-dihydrocyclopenta[c]pyrazol-1(4H)-yl}ethan-1-one] | 223
Cc1cc(F)cc(N2CCN(C(=O)Cn3nc(C(=O)N4C[C@@H](C)O[C@@H](C)C4)c4c3CCC4)CC2)c1 [Example 41, 2-{3-[(2R,6S)-2,6-dimethylmorpholine-4-carbonyl]-5,6-dihydrocyclopenta[c]pyrazol-1(4H)-yl}-1-[4-(3-fluoro-5-methylphenyl)piperazin-1-yl]ethan-1-one] | 243
C[C@@H]1CN(C(=O)c2nn(CC(=O)N3CCN(c4ccc(Cl)cc4)CC3)c3c2CCC3)C[C@H](C)O1 [Example 42, 1-[4-(4-chlorophenyl)piperazin-1-yl]-2-{3-[(2R,6S)-2,6-dimethylmorpholine-4-carbonyl]-5,6-dihydrocyclopenta[c]pyrazol-1(4H)-yl}ethan-1-one] | 147
Cc1cc(Cl)ccc1N1CCN(C(=O)Cn2nc(C(=O)N3C[C@@H](C)O[C@@H](C)C3)c3c2CCC3)CC1 [Example 43, 1-[4-(4-chloro-2-methylphenyl)piperazin-1-yl]-2-{3-[(2R,6S)-2,6-dimethylmorpholine-4-carbonyl]-5,6-dihydrocyclopenta[c]pyrazol-1(4H)-yl}ethan-1-one] | 34.8
C[C@@H]1CN(C(=O)c2nn(CC(=O)N3CCN(c4cc(F)c(F)cc4Cl)CC3)c3c2CCC3)C[C@H](C)O1 [Example 44, 1-[4-(2-chloro-4,5-difluorophenyl)piperazin-1-yl]-2-{3-[(2R,6S)-2,6-dimethylmorpholine-4-carbonyl]-5,6-dihydrocyclopenta[c]pyrazol-1(4H)-yl}ethan-1-one] | 260
C[C@@H]1CN(C(=O)c2nn(CC(=O)N3CCN(c4ccc(F)c(F)c4)CC3)c3c2CCC3)C[C@H](C)O1 [Example 45, 1-[4-(3,4-difluorophenyl)piperazin-1-yl]-2-{3-[(2R,6S)-2,6-dimethylmorpholine-4-carbonyl]-5,6-dihydrocyclopenta[c]pryazol-1(4H)-yl}ethan-1-one] | 233
Cc1cc(F)ccc1N1CCN(C(=O)Cn2nc(C(=O)N3C[C@@H](C)O[C@@H](C)C3)c3c2CCC3)CC1 [Example 46, 2-{3-[(2R,6S)-2,6-dimethylmorpholine-4-carbonyl]-5,6-dihydrocyclopenta[c]pyrazol-1(4H)-yl}-1-[4-(4-fluoro-2-methylphenyl)piperazin-1-yl]ethan-1-one] | 45.2
COc1ccc(N2CCN(C(=O)Cn3nc(C(=O)N4C[C@@H](C)O[C@@H](C)C4)c4c3CCC4)CC2)c(C)c1C [Example 47, 2-{3-[(2R,6S)-2,6-dimethylmorpholine-4-carbonyl]-5,6-dihydrocyclopenta[c]pyrazol-1(4H)-yl}-1-[4-(4-methoxy-2,3-dimethylphenyl)piperazin-1-yl]ethan-1-one] | 83
Cc1c(N2CCN(C(=O)Cn3nc(C(=O)N4C[C@@H](C)O[C@@H](C)C4)c4c3CCC4)CC2)ccc(F)c1F [Example 49, 1-[4-(3,4-difluoro-2-methylphenyl)piperazin-1-yl]-2-{3-[(2R,6S)-2,6-dimethylmorpholine-4-carbonyl]-5,6-dihydrocyclopenta[c]pyrazol-1(4H)-yl}ethan-1-one] | 13.5
Cc1ccc(N2CCN(C(=O)Cn3nc(C(=O)N4C[C@@H](C)O[C@@H](C)C4)c4c3CCC4)CC2)c(C)c1 [Example 50, 2-{3-[(2R,6S)-2,6-dimethylmorpholine-4-carbonyl]-5,6-dihydrocyclopenta[c]pyrazol-1(4H)-yl}-1-[4-(2,4-dimethylphenyl)piperazin-1-yl]ethan-1-one] | 15.1
C[C@@H]1CN(C(=O)c2nn(CC(=O)N3CCN(c4ccc(C(F)(F)F)cc4)CC3)c3c2CCC3)C[C@H](C)O1 [Example 51, 2-{3-[(2R,6S)-2,6-dimethylmorpholine-4-carbonyl]-5,6-dihydrocyclopenta[c]pyrazol-1(4H)-yl}-1-{4-[4-(trifluoromethyl)phenyl]piperazin-1-yl}ethan-1-one] | 173
C[C@@H]1CN(C(=O)c2nn(CC(=O)N3CCN(c4cccc5c4CCCC5)CC3)c3c2CCC3)C[C@H](C)O1 [Example 52, 2-{3-[(2R,6S)-2,6-dimethylmorpholine-4-carbonyl]-5,6-dihydrocyclopenta[c]pyrazol-1(4H)-yl}-1-[4-(5,6,7,8-tetrahydronaphthalen-1-yl)piperazin-1-yl]ethan-1-one] | 10.4
Cc1cc(N2CCN(C(=O)Cn3nc(C(=O)N4C[C@@H](C)O[C@@H](C)C4)c4c3CCC4)CC2)ccc1F [Example 53] | 76.9
C[C@@H]1CN(C(=O)c2nn(CC(=O)N3CCN(c4ccc(Cl)c(F)c4)CC3)c3c2CCC3)C[C@H](C)O1 [Example 54, 1-[4-(4-chloro-3-fluorophenyl)piperazin-1-yl]-2-{3-[(2R,6S)-2,6-dimethylmorpholine-4-carbonyl]-5,6-dihydrocyclopenta[c]pyrazol-1(4H)-yl}ethan-1-one] | 57.1
C[C@@H]1CN(C(=O)c2nn(CC(=O)N3CCN(c4ccccc4Cl)CC3)c3c2CCC3)C[C@H](C)O1 [Example 55, 1-[4-(2-chlorophenyl)piperazin-1-yl]-2-{3-[(2R,6S)-2,6-dimethylmorpholine-4-carbonyl]-5,6-dihydrocyclopenta[c]pyrazol-1(4H)-yl}ethan-1-one] | 244
